Experimental findings from the METLIN SMRT retention time set (Domingo-Almenara et al. 2019) are described below.

This data set can be described thus: gradient 5% acetonitrile 3 min, to 50% in 2 min, to 85% in 15 min, held 3 min, 100 µL/min. Conditions: column: Zorbax Extend-C18 2.1 x 50 mm; eluents: water / acetonitrile, 0.1% formic acid. A digest of the protocol: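 A Zorbax Extend-C18 column (2.1 × 50 mm, 1.8 μm) run at 100 μL/min with water and acetonitrile, both containing 0.1% formic acid, separated mixtures of ~100 pure standards. The HPLC was coupled to a quadrupole time-of-flight mass spectrometer operated in positive and negative ionization mode, with dead and dwell volumes of 40 μL and 900 μL. Each retention time was taken from a computationally picked adduct peak that was then manually inspected.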
Molecule `CN(c1ccc(F)cc1)S(=O)(=O)N1CCCC(C(=O)N2CCN(c3ncccn3)CC2)C1` (centres undefined) showed an RP-LC retention time of 864 s.

Consider `Cc1nc(Cn2cccc2C(=O)NC2CCCCCC2)no1`, for which the RP-LC retention time was 879 s.

`CC(=O)Nc1ccc(C2(C(=O)NCc3ccccc3F)CCC2)cc1`: the RP-LC retention time worked out at 732 s.

`COc1ccc(OCc2nc(-c3cccc(-c4ccn[nH]4)c3)no2)cc1` registered an RP-LC retention time of 914 s.

In turn, `O=C(C1CCCN1c1nnc(N2CCCC2=O)s1)N1CCN(c2ccccn2)CC1` (centres undefined) showed an RP-LC retention time of 547 s.

The molecule `Cc1cc(=O)n(CC(=O)Nc2ccc3c(c2)OCCO3)c(N2CCCC2)n1` gave an RP-LC retention time of 620 s.

Consider `CC1=C(c2ccccc2)S(=O)(=O)N=C1N1CCCN(C(=O)c2ccco2)CC1`, for which the RP-LC retention time is 719 s.

On to `O=C(c1cn(-c2cc(N3CCSCC3)ncn2)cn1)N1CC=C(c2ccccc2)CC1`, for which the RP-LC retention time was 992 s.

`CCOc1ccc(CC(=O)N2CCN(Cc3nc(C)cs3)CC2)cc1` displayed an RP-LC retention time of 586 s.

`COc1cc(-c2noc(C3CC(=O)N(c4ccc(C)cc4C)C3)n2)cc(OC)c1OC` (centres undefined) showed an RP-LC retention time of 938 s.

Molecule `Cc1ccc(C)c(S(=O)(=O)N2CCC3(CCC(CN4CCN(C)CC4)O3)CC2)c1` (centres undefined) registered an RP-LC retention time of 638 s.

Consider `COCCCNC(=O)C1CC(=O)N(CCc2c[nH]c3ccc(C)cc23)C1` (centres undefined), for which the RP-LC retention time came out at 667 s.

The molecule `CCn1ncc(NC(=O)Cc2ccc(Cl)cc2)c(N2CCOCC2)c1=O` gave an RP-LC retention time of 836 s.

The molecule `Cc1ccc(NC(=O)Cn2nc3cc(-c4ccccc4)nc(C)n3c2=O)c(C)c1` displayed an RP-LC retention time of 985 s.

On to `Cc1nn(-c2nc(-c3ccc(Cl)cc3)cs2)c(C)c1CC(=O)N1CCc2ccccc2C1`, for which the RP-LC retention time came out at 1330 s.

Molecule `O=C1CCCCC(C(=O)N2CCOCC2)N1` (centres undefined) came in with an RP-LC retention time of 575 s.

`COc1ccc(CN2CC(C(=O)N3CCCN(c4cc(=O)n(C)c(=O)n4C)CC3)CC2=O)cc1` (centres undefined) returned an RP-LC retention time of 629 s.

Molecule `Cc1oc(-c2ccc(NC(=O)c3ccc(Br)o3)cc2)nc1Cn1cccn1` returned an RP-LC retention time of 901 s.

`CCCCOc1ccc(NC(=O)c2cc(=O)c3cc(Cl)c(C)cc3o2)c2cccnc12` yielded an RP-LC retention time of 824 s.

`Cc1cc(C)cc(NC(=O)Cn2c(C)cc(-c3nnc(C)o3)c2C)c1` gave an RP-LC retention time of 843 s.

`CCc1cccc(NC(=O)CN2C(=O)CCc3cc(S(=O)(=O)N4CCCCC4C)ccc32)c1` (centres undefined) registered an RP-LC retention time of 998 s.

Take `COc1ncc(C(=O)Nc2ccc(F)cc2F)c(C)n1`: the RP-LC retention time worked out at 724 s.

`NC(=O)CSc1nnc(-c2ccncc2)o1`: the RP-LC retention time amounted to 486 s.

As to `O=C1CC(c2ccccc2)Cc2[nH]c(=O)c(C(=O)Nc3cccc(C(F)(F)F)c3)cc21` (centres undefined), the RP-LC retention time came out at 1020 s.

`Cc1cc(=O)n(CC(=O)Nc2cccc(C(F)(F)F)c2)c(N2CCN(c3ccccc3)CC2)n1` registered an RP-LC retention time of 969 s.

The molecule `Cn1cc(C2=CCN(S(=O)(=O)c3cccc(C(F)(F)F)c3)CC2)c2cccnc21` gave an RP-LC retention time of 1050 s.

`CC(=O)Nc1nsc(N2CCC(C(=O)N3CCN(c4cc(C)ccc4C)CC3)CC2)n1` registered an RP-LC retention time of 820 s.

Turning to `O=C(Nc1cnc(N2CCCC2)nc1)c1ccc(Br)cc1`, the RP-LC retention time stood at 796 s.

Turning to `O=C(c1ccc(OCC2CCCN(C(=O)c3ccc(F)cc3)C2)cc1)N1CCOCC1` (centres undefined), the RP-LC retention time was 769 s.

Take `O=C1NCCC1Cc1ccc(C(F)(F)F)cc1` (centres undefined): the RP-LC retention time turned out to be 710 s.

`CCOC(=O)c1noc2nc(C)nc(N3CCN(c4ccc(F)cc4)CC3)c12` had an RP-LC retention time of 1070 s.

Consider `O=C(NC1CC1)C1CCCN(C(=O)c2ccc(F)cc2)C1` (centres undefined), for which the RP-LC retention time amounted to 629 s.

In turn, `CC(=O)N1CCC([C@@H]2CN(C(=O)C3(C)CCCCC3)C[C@H]2CO)CC1` had an RP-LC retention time of 631 s.

`CC(=O)N1CCN(C2=NC(=O)/C(=C\c3ccc(O)c([N+](=O)[O-])c3)S2)CC1` came in with an RP-LC retention time of 589 s.

The molecule `O=C(Cn1cnc2nc(N3CCC(C(=O)NC4CC4)CC3)sc2c1=O)Nc1cccc(F)c1` came in with an RP-LC retention time of 655 s.

`CCOc1ccccc1-c1noc(Cn2c(=O)n(-c3cccc(OC)c3)c(=O)c3sccc32)n1` returned an RP-LC retention time of 964 s.

Molecule `CCOc1ccccc1-c1noc(Cn2c(=O)n(CCCOC)c(=O)c3ccccc32)n1` had an RP-LC retention time of 1060 s.

As for `COc1ccc(C2=NC3(CCN(C(=O)Nc4ccc(Cl)cc4)CC3)NC2=O)cc1`, the RP-LC retention time was 835 s.

`O=C(Cn1nc2c3cc(-c4ccc(F)cc4)nn3ccn2c1=O)N1CCCc2ccccc21`: the RP-LC retention time was 968 s.

For `CCOC(=O)C(CC)Sc1ccc(NC(=O)c2cccs2)nn1` (centres undefined), the RP-LC retention time came out at 908 s.

The molecule `COc1ccc(N2CCCn3c2nc2c3c(=O)n(C)c(=O)n2C)cc1` displayed an RP-LC retention time of 568 s.

`O=C(Nc1ccc2c(c1)CNCCO2)C1CC1` returned an RP-LC retention time of 527 s.

In the case of `Cc1ccc(C2=NC3(CCN(C(=O)Nc4ccc5c(c4)OCO5)CC3)NC2=O)cc1`, the RP-LC retention time stood at 714 s.

Turning to `O=c1n(Cc2ccccc2)nc2n1CCN(S(=O)(=O)c1cnc[nH]1)CC2`, the RP-LC retention time came to 646 s.

Take `Cc1ccc2c(c1)N(C(=O)c1ccc(C#N)cc1)CCO2`: the RP-LC retention time stood at 925 s.

Consider `Cc1ccc(C(=O)N2CCN(c3ccc(=O)n(-c4cccc(Cl)c4)n3)CC2)s1`, for which the RP-LC retention time was found to be 891 s.

Regarding `CNC(=O)N1CCc2c(c(-c3nc(-c4ccc(F)cc4)no3)nn2C)C1`, the RP-LC retention time is 723 s.

Turning to `CN(C)S(=O)(=O)c1ccc(-c2nnc(C(=O)NCc3ccccc3F)o2)cc1`, the RP-LC retention time came to 840 s.

Consider `O=C(NCc1cccnc1)C1(c2ccccc2)CCOCC1`, for which the RP-LC retention time was 540 s.

In the case of `Cc1nc(-c2cc3ccccc3nc2N2CCN(C(=O)c3cccs3)CC2)no1`, the RP-LC retention time was 894 s.

`CCS(=O)(=O)c1ccc2c(c1)N(Cc1nc(-c3ccc4c(c3)OCO4)no1)C(=O)CO2` registered an RP-LC retention time of 859 s.

In turn, `C#CCOCC1CCN(C(=O)CSC2CCCC2)CC1` had an RP-LC retention time of 852 s.

As to `Cc1ccc(NC(=O)CN2C(=O)CCc3cc(S(=O)(=O)N4CCCCC4C)ccc32)cc1C` (centres undefined), the RP-LC retention time worked out at 720 s.

In the case of `CCN(CC)CCNC(=O)C1CCCN(c2ncc(-c3ccc(F)cc3)cn2)C1` (centres undefined), the RP-LC retention time was 688 s.

In the case of `COc1ccc(OC)c(S(=O)(=O)N2CCCN(C)c3ccccc32)c1`, the RP-LC retention time came out at 860 s.

As for `Cc1ccc(-c2csc(Cc3nc(-c4ccc(F)cc4)no3)n2)cc1C`, the RP-LC retention time came to 1320 s.

Turning to `Cc1ccc(-c2csc(Nc3c(C)n(C)n(-c4ccccc4)c3=O)n2)cc1`, the RP-LC retention time came to 788 s.

Regarding `CCc1nc(-c2csc(S(=O)(=O)N3CCCC(C(=O)Nc4ccc(F)cc4C)C3)c2)no1` (centres undefined), the RP-LC retention time stood at 1020 s.

The molecule `Cc1nc(C)c(-c2ccc(=O)n(CCNC(=O)c3ccno3)n2)s1` registered an RP-LC retention time of 585 s.

The molecule `Cc1ccc(S(=O)(=O)Nc2ccc(Cn3cncn3)cc2)cc1Cl` returned an RP-LC retention time of 760 s.

For the molecule `COc1nc2ccccc2nc1N1CCCC(C(=O)Nc2ccc(Br)c(C)c2C)C1` (centres undefined), the RP-LC retention time is 1260 s.

Turning to `Cc1ccc2[nH]cc(CCNC(=O)c3ccc(N4CCCC4)c(S(=O)(=O)N4CCCC4)c3)c2c1`, the RP-LC retention time amounted to 998 s.

As for `Cn1c(=O)c(N2CCN(C(=O)c3cc(F)ccc3F)CC2)nc2cccnc21`, the RP-LC retention time was determined as 834 s.

`CC(C)(C)OC(=O)N1CCN(c2ncnc(N)c2[N+](=O)[O-])CC1` displayed an RP-LC retention time of 691 s.

`CCCC(CCC)C(=O)NCc1nnnn1-c1ccc(OCC)cc1` had an RP-LC retention time of 882 s.

`O=S(=O)(Nc1ccc(F)cc1)c1ccc(-c2nnc(C3CCC3)o2)o1`: the RP-LC retention time came out at 888 s.

In turn, `CCCn1cc(S(=O)(=O)Nc2ccc(C#N)cc2)c2cccnc21` showed an RP-LC retention time of 844 s.

`Cc1ccc(NC(=O)Cn2nc3c(Oc4ccc(F)cc4)nccn3c2=O)cc1`: the RP-LC retention time was 859 s.

`Cc1ccc(-n2nc3c(N4CCCC(C(=O)NCCc5cccs5)C4)nnc(C)c3c2C)cc1` (centres undefined) showed an RP-LC retention time of 748 s.

Consider `Cn1nc(-c2nc(Cc3ccccc3)no2)c2c1CCN(C(=O)Nc1ccccc1)C2`, for which the RP-LC retention time amounted to 905 s.

For the molecule `CN1CCN(c2ccc(-c3ccc(NC(=O)Nc4cccc(Cl)c4)cc3)nn2)CC1`, the RP-LC retention time stood at 588 s.

`O=C(C1CCCN(c2ncnc3c2nc2n3CCCCC2)C1)N1CCN(c2ccccn2)CC1` (centres undefined): the RP-LC retention time stood at 592 s.

Regarding `Cc1ccc2c(c1)N(CCCC(=O)Nc1ccc(C)c(C)c1)C(=O)CO2`, the RP-LC retention time was 922 s.

Consider `O=C(NCc1ccc2c(c1)OCO2)C1CCCN(c2nn3c(=O)c4c(nc3s2)CCCC4)C1` (centres undefined), for which the RP-LC retention time is 719 s.

For `CCCS(=O)(=O)N1CCC(OCCOc2cccnc2)CC1`, the RP-LC retention time was 581 s.

Molecule `CCNc1cc(N2CCCC(CCC(=O)NC(C)c3cn(C)nc3C)C2)ncn1` (centres undefined) showed an RP-LC retention time of 592 s.

With `COCCN1C(=O)CCc2cc(NS(=O)(=O)c3cccc(F)c3)ccc21`, the RP-LC retention time is 748 s.

Consider `COc1ccccc1N1CCN(Cc2nc(-c3ccc(N4CCC(C)CC4)nc3)no2)CC1`, for which the RP-LC retention time is 882 s.

With `CCOC(=O)c1c(C)c(C(=O)C(C)N(C(=O)c2ccc(Cl)cc2)C2CC2)c(C)n1CC` (centres undefined), the RP-LC retention time was found to be 1140 s.
